Reference: patent US8785457B2 (Cellzome Limited, priority 2009, dated 2014)
Like-named read-outs stand apart in the source and are kept apart here.

Columns and labels:
[1] = biological target: T1, DNA-dependent protein kinase (DNA-PK) (Homo sapiens, UniProt P78527); experiment: kinobeads assay, DNA-PK; format: binding
T1 construct: endogenous in cells; host or cells: Jurkat, clone E6-1 (ATCC TIB-152) cell lysate
How it was run: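 Competitive binding in Jurkat cell lysate (5 mg/mL protein) against beads carrying an immobilized phenylmorpholin-chromen ligand, in DP buffer pH 7.4 with NP40, DTT and NaF. Bead-bound kinases were eluted and quantified by antibody dot blot with infrared detection, and IC50 was taken from dose-response curves of a 1:3 dilution series.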

[2] = tested on: S6RP serine-240/244 phosphorylation; experiment: In vitro Phospho-S6 cellular assay (pS6RP S240/244) in HEK293T/17 cells; format: cell-based; conditions: Homo sapiens, 2 hours, read-out: pS6 IC50
How it was run: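 HEK293T/17 cells were seeded at 40,000 (pS6RP) or 80,000 (pAkt) cells/well in DMEM with 2% FCS. They were exposed to 8 compound concentrations (0.1% DMSO) for 2 h at 37 °C and then lysed. Phosphoprotein was quantified by MesoScale electrochemiluminescence sandwich immunoassay, and the sigmoidal variable-slope dose-response was fitted.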

[3] = kinobeads assay, Table 4, read-out: Inhibition values (IC50) DNA-PK
[4] = kinobeads assay, Table 6, read-out: Inhibition values (IC50) DNAPK
[5] = Further Kinobeads Data, read-out: DNAPK

T1 sequence (P78527 whole entry): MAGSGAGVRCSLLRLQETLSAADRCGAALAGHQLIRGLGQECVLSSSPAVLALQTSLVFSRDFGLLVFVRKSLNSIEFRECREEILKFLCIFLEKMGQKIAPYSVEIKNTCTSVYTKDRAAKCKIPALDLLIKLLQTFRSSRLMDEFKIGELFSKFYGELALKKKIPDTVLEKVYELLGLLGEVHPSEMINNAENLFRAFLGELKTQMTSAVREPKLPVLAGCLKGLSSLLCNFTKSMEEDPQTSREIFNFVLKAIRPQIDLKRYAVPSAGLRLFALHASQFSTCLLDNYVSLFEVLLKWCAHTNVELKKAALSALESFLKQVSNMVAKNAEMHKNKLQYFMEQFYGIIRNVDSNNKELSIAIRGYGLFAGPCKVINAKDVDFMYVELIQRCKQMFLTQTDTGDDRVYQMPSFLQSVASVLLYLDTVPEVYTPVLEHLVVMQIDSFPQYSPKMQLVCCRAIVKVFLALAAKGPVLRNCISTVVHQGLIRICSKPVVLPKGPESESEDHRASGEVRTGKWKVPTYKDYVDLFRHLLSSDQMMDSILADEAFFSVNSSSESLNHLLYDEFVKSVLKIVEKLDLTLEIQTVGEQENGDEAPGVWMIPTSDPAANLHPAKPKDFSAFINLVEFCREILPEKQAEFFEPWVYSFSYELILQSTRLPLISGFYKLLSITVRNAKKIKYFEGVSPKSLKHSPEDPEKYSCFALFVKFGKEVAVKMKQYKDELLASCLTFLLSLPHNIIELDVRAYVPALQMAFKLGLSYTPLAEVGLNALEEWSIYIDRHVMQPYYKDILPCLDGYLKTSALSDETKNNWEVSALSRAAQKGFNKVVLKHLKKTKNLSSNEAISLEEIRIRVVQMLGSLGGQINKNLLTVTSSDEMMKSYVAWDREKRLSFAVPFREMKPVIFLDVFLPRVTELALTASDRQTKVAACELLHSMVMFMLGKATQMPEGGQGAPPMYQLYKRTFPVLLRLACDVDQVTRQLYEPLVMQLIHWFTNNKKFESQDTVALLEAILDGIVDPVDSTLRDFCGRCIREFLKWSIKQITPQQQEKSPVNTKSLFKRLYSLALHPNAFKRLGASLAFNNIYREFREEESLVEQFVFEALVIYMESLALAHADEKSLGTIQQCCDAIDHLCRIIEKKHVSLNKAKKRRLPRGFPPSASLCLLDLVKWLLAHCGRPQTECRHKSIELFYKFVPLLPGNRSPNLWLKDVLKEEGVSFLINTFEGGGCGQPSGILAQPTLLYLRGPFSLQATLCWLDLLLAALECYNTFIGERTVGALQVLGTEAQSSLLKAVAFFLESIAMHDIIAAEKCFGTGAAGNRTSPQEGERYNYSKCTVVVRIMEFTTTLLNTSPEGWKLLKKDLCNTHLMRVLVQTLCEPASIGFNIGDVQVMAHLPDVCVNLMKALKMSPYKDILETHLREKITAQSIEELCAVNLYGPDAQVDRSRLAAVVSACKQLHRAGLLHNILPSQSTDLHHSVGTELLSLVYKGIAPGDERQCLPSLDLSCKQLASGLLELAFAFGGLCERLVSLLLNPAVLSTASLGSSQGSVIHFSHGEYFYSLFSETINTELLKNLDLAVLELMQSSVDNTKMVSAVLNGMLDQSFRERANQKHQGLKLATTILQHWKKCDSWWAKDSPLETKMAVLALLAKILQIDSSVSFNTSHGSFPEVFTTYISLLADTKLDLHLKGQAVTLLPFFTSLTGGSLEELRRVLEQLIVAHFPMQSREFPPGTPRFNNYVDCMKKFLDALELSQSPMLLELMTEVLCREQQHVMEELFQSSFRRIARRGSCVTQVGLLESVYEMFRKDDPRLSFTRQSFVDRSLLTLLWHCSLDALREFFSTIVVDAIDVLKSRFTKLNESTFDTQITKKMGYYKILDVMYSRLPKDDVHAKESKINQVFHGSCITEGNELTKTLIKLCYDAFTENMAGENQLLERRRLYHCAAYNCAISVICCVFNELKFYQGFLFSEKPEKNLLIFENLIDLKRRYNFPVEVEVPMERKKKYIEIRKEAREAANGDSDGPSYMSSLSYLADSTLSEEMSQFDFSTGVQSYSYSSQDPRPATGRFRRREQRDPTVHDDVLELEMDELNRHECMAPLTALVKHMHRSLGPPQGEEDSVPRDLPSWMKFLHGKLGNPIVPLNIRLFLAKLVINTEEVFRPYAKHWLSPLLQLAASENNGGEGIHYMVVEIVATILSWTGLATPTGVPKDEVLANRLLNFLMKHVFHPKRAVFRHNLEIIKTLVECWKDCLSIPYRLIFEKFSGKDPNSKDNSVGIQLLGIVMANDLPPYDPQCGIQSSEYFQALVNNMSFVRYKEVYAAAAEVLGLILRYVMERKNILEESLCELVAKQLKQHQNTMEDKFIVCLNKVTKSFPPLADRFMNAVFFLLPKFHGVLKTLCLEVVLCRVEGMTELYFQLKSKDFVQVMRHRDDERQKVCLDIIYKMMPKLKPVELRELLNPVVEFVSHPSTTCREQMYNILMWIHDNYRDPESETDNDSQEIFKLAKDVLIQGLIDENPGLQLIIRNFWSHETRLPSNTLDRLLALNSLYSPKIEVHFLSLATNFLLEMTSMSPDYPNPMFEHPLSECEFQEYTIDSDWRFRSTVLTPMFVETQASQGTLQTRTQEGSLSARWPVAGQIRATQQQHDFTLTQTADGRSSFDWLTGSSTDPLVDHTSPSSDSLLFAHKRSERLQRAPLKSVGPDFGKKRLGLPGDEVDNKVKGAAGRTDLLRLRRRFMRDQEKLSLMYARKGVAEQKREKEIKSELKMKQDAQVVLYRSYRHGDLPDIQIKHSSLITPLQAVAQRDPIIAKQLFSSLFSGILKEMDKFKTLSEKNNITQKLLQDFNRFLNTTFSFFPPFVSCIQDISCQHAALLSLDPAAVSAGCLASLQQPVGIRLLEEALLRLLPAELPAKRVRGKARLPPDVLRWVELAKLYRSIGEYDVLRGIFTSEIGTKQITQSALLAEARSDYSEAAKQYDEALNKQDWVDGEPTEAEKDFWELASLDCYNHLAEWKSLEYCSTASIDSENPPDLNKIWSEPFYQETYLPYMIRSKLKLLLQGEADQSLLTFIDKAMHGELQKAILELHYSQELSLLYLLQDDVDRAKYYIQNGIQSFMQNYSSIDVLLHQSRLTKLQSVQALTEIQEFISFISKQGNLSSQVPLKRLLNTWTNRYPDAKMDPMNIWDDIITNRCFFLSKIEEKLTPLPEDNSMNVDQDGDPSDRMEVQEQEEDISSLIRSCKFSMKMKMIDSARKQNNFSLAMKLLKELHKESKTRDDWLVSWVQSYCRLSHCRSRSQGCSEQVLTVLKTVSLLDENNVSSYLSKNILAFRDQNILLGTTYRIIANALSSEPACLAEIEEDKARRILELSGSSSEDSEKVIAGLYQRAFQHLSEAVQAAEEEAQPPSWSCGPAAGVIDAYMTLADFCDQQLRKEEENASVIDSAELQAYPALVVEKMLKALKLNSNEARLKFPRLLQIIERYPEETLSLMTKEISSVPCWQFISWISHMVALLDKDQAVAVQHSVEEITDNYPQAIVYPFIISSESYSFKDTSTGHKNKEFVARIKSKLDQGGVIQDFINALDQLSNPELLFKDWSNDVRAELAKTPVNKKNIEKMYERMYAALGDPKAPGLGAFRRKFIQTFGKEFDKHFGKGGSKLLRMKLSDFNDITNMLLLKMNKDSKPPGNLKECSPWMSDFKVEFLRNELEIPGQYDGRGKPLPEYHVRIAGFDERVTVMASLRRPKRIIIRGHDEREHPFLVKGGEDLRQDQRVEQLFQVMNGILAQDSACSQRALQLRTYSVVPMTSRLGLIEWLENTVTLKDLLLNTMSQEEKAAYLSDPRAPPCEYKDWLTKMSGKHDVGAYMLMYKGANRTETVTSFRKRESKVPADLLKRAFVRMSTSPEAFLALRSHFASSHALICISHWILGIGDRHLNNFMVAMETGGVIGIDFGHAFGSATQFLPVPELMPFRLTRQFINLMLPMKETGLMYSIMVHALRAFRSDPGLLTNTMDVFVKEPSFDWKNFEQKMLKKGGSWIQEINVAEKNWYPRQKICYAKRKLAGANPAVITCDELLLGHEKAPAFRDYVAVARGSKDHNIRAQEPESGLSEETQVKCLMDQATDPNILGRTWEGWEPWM

IC50 [1, 3] [nM] | IC50 [1, 4] [nM] | IC50 [2] [nM] | IC50 [1, 5] [nM] | Compound
> 10000 | > 10000 | 435 | – | C[C@H]1COCCN1c1nc(-c2ccc(NC(=O)NC3CCC3)cc2)nc2c1CN(C)C2 [Example 55, (S)-1-cyclobutyl-3-(4-(6-methyl-4-(3-methylmorpholino)-6,7-dihydro-5H-pyrrolo[3,4-d]pyrimidin-2-yl)phenyl)urea]
– | – | 360 | > 10000 | CC(C)N1Cc2nc(-c3ccc(NC(=O)NCCF)cc3F)nc(N3CCOCC3)c2C1 [Example 185, 1-(3-fluoro-4-(6-isopropyl-4-morpholino-6,7-dihyro-5H-pyrrolo[3,4-d]pyrimidin-2-yl)phenyl)-3-(2-fluoroethyl)urea]
> 10000 | > 10000 | 120 | – | C[C@H]1COCCN1c1nc(-c2ccc(NC(=O)NC3CC3)cc2)nc2c1CCN(CC(C)(C)C)C2 [Example 41, (S)-1-cyclopropyl-3-(4-(4-(3-methylmorpholino)-7-neopentyl-5,6,7,8-tetrahydropyrido[3,4-d]pyrimidin-2-yl)phenyl)urea]
> 10000 | > 10000 | 115 | – | CCNC(=O)Nc1ccc(-c2nc3c(c(N4CCOC[C@@H]4C)n2)CN(C(=O)C2CC2)C3)cc1 [Example 23, (S)-1-(4-(6-(cyclopropanecarbonyl)-4-(3-methylmorpholino)-6,7-dihydro-5H-pyrrolo[3,4-d]pyrimidin-2-yl)phenyl)-3-ethylurea]
> 10000 | > 10000 | 423 | – | CC(C)NC(=O)Nc1ccc(-c2nc3c(c(N4CCOC[C@@H]4C)n2)CN(CC2CC2)C3)cc1 [Example 50, (S)-1-(4-(6-(cyclopropylmethyl)-4-(3-methylmorpholino)-6,7-dihydro-5H-pyrrolo[3,4-d]pyrimidin-2-yl)phenyl)-3-isopropylurea]
– | – | 180 | > 10000 | C[C@@H]1COCCN1c1nc(-c2ccc(NC(=O)NC3CC3)cc2F)nc2c1CN(S(C)(=O)=O)C2 [Example 191, (R)-1-cyclopropyl-3-(3-fluoro-4-(4-(3-methylmorpholino)-6-(methylsulfonyl)-6,7-dihydro-5H-pyrrolo[3,4-d]pyrimidin-2-yl)phenyl)urea]
– | – | 962 | 1000 to 10000 | COC(=O)N1Cc2nc(-c3ccc(NC(=O)NCCO)cc3F)nc(N3CCOC[C@@H]3C)c2C1 [Example 181, (S)-methyl 2-(2-fluoro-4-(3-(2-hydroxyethyl)ureido)phenyl)-4-(3-methylmorpholino)-5H-pyrrolo[3,4-d]pyrimidine-6(7H)-carboxylate]
– | – | 140 | > 10000 | CCNC(=O)Nc1ccc(-c2nc3c(c(N4CCOC[C@@H]4C)n2)CN(C(=O)OC(C)(C)C)C3)c(F)c1 [Example 153, (S)-tert-butyl 2-(4-(3-ethylureido)-2-fluorophenyl)-4-(3-methylmorpholino)-5H-pyrrolo[3,4-d]pyrimidine-6-(7H)-carboxylate]
> 10000 | > 10000 | 182 | – | CCNC(=O)Nc1ccc(-c2nc3c(c(N4CCOC[C@@H]4C)n2)CN(S(C)(=O)=O)C3)cc1 [Example 32, (S)-1-ethyl-3-(4-(4-(3-methylmorpholino)-6-(methylsulfonyl)-6,7-dihydro-5H-pyrrolo[3,4-d]pyrimidin-2-yl)phenyl)urea]
> 10000 | > 10000 | 218 | – | CNC(=O)Nc1ccc(-c2nc3c(c(N4CCOC[C@@H]4C)n2)CN(CC2CC2)C3)cc1 [Example 47, (S)-1-(4-(6-(cyclopropylmethyl)-4-(3-methylmorpholino)-6,7-dihydro-5H-pyrrolo[3,4-d]pyrimidin-2-yl)phenyl)-3-methylurea]
– | – | 163 | > 10000 | C[C@H]1COCCN1c1nc(-c2ccc(NC(=O)NC3CC3)cc2F)nc2c1CN(C(=O)N(C)C)C2 [Example 178, (S)-2-(4-(3-cyclopropylureido)-2-fluorophenyl)-N,N-dimethyl-4-(3-methylmorpholino)-5H-pyrrolo[3,4-d]pyrimidine-6(7H)-carboxamide]
> 10000 | > 10000 | 72 | – | CCNC(=O)Nc1ccc(-c2nc3c(c(N4CCOC[C@@H]4C)n2)CN(CC2CC2)C3)cc1 [Example 28, (S)-1-(4-(6-(cyclopropylmethyl)-4-(3-methylmorpholino)-6,7-dihydro-5H-pyrrolo[3,4-d]pyrimidin-2-yl)phenyl)-3-ethylurea]
– | – | 983 | 1000 to 10000 | CCOC(=O)N1Cc2nc(-c3ccc(NC(=O)NCCO)cc3F)nc(N3CCOCC3)c2C1 [Example 171, ethyl 2-(2-fluoro-4-(3-(2-hydroxyethyl)ureido)phenyl)-4-morpholino-5H-pyrrolo[3,4-d]pyrimidine-6(7H)-carboxylate]
> 10000 | > 10000 | 71 | – | CC(C)N1CCc2c(nc(-c3ccc(NC(=O)NC4CC4)cc3)nc2N2CCOC[C@@H]2C)C1 [Example 43, (S)-1-cyclopropyl-3-(4-(7-isopropyl-4-(3-methylmorpholino)-5,6,7,8-tetrahydropyrido[3,4-d]pyrimidin-2-yl)phenyl)urea]
> 10000 | > 10000 | 24 | – | CCNC(=O)Nc1ccc(-c2nc3c(c(N4CCOC[C@@H]4C)n2)CCN(CC)C3)cc1 [Example 27, (S)-1-ethyl-3-(4-(7-ethyl-4-(3-methylmorpholino)-5,6,7,8-tetrahydropyrido[3,4-d]pyrimidin-2-yl)phenyl)urea]
– | – | 187 | 1000 to 10000 | CC(C)N1Cc2nc(-c3ccc(NC(=O)NC4CC4)cc3F)nc(N3CCOC[C@@H]3C)c2C1 [Example 172, (S)-1-cyclopropyl-3-(3-fluoro-4-(6-isopropyl-4-(3-methylmorpholino)-6,7-dihydro-5H-pyrrolo[3,4-d]pyrimidin-2-yl)phenyl)urea]
– | – | 615 | > 10000 | CCOC(=O)N1Cc2nc(-c3ccc(NC(=O)NCCO)cc3F)nc(N3CCOC[C@@H]3C)c2C1 [Example 167, (S)-Ethyl 2-(2-fluoro-4-(3-(2-hydroxyethyl)ureido)phenyl)-4-(3-methylmorpholino)-5H-pyrrolo[3,4-d]pyrimidine-6(7H)-carboxylate]
> 10000 | > 10000 | 104 | – | CC(C)CN1CCc2c(nc(-c3ccc(NC(=O)NC4CC4)cc3)nc2N2CCOC[C@@H]2C)C1 [Example 42, (S)-1-cyclopropyl-3-(4-(7-isobutyl-4-(3-methylmorpholino)-5,6,7,8-tetrahydropyrido[3,4-d]pyrimidin-2-yl)phenyl)urea]
– | – | 153 | > 10000 | CCNC(=O)Nc1ccc(-c2nc3c(c(N4CCOCC4)n2)CN(C(=O)OCC)C3)c(F)c1 [Example 151, Ethyl 2-(4-(3-ethylureido)-2-fluorophenyl)-4-morpholino-5H-pyrrolo[3,4-d]pyrimidine-6(7H)-carboxylate]
> 10000 | > 10000 | 147 | – | CC(C)N1Cc2nc(-c3ccc(NC(=O)NC4CC4)cc3)nc(N3CCOC[C@@H]3C)c2C1 [Example 46, (S)-1-cyclopropyl-3-(4-(6-isopropyl-4-(3-methylmorpholino)-6,7-dihydro-5H-pyrrolo[3,4-d]pyrimidin-2-yl)phenyl)urea]
– | – | 282 | > 10000 | C[C@H]1COCCN1c1nc(-c2ccc(NC(=O)NC3CC3)cc2F)nc2c1CN(C)C2 [Example 147, (S)-1-cyclopropyl-3-(3-fluoro-4-(6-methyl-4-(3-methylmorpholino)-6,7-dihydro-5H-pyrrolo[3,4-d]pyrimidin-2-yl)phenyl)urea]
> 10000 | > 10000 | 205 | – | CC(C)C(=O)N1Cc2nc(-c3ccc(NC(=O)NC4CC4)cc3)nc(N3CCOC[C@@H]3C)c2C1 [Example 44, (S)-1-cyclopropyl-3-(4-(6-isobutyryl-4-(3-methylmorpholino)-6,7-dihydro-5H-pyrrolo[3,4-d]pyrimidin-2-yl)phenyl)urea]
– | – | 93 | > 10000 | CCNC(=O)Nc1ccc(-c2nc3c(c(N4CCOC[C@@H]4C)n2)CN(C(=O)OC)C3)c(F)c1 [Example 152, (S)-methyl 2-(4-(3-ethylureido)-2-fluorophenyl)-4-(3-methylmorpholino)-5H-pyrrolo[3,4-d]pyrimidine-6-(7H)-carboxylate]
– | – | 172 | > 10000 | COC(=O)N1Cc2nc(-c3ccc(NC(=O)NC4CC4)cc3F)nc(N3CCOCC3)c2C1 [Example 173, Methyl 2-(4-(3-cyclopropylureido)-2-fluorophenyl)-4-morpholino-5H-pyrrolo[3,4-d]pyrimidine-6(7H)-carboxylate]
– | – | 143 | > 10000 | COC(=O)N1Cc2nc(-c3ccc(NC(=O)NCCF)cc3F)nc(N3CCOCC3)c2C1 [Example 169, Methyl 2-(2-fluoro-4-(3-(2-fluoroethyl)ureido)phenyl)-4-morpholino-5H-pyrrolo[3,4-d]pyrimidine-6(7H)-carboxylate]
– | – | 405 | > 10000 | C[C@H]1COCCN1c1nc(-c2ccc(NC(=O)NC3CC3)cc2F)nc2c1CCNC2 [Example 163, (S)-1-cyclopropyl-3-(3-fluoro-4-(4-(3-methylmorpholino)-5,6,7,8-tetrahydropyrido[3,4-d]pyrimidin-2-yl)phenyl)urea]
> 10000 | > 10000 | 37 | – | CCNC(=O)Nc1ccc(-c2nc3c(c(N4CCOC[C@@H]4C)n2)CCN(C)C3)cc1 [Example 35, (S)-1-ethyl-3-(4-(7-methyl-4-(3-methylmorpholino)-5,6,7,8-tetrahydropyrido[3,4-d]pyrimidin-2-yl)phenyl)urea]
